Where “and” joins values, the source holds several entries; their conditions need not be identical. Equal values may be shown once.
Test system: 422866-222-R5-J1-PDC spheroid viability
Assay: Anticancer human tumor 422866-222-R5-J1-PDC patient-derived pancreatic adenocarcinoma cell line growth inhibition [CLK]
Conditions: spheroids with HUVEC and MSC; for viability, T/C: stronger effect = lower value
In short: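 Multi-cell-type spheroids combined patient-derived tumor cells with HUVEC endothelial cells and human mesenchymal stem cells. Paired agents were dosed in half-log steps down from about clinical Cmax, or from 10 microM where Cmax was unknown.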

[1] = curve of first compound, second compound 0.0316 µM
[2] = curve of first compound, second compound 0.1 µM
[3] = curve of first compound, second compound 0.316 µM
[4] = curve of first compound, second compound 1 µM
[5] = curve of first compound, second compound 3.16 µM
[6] = curve of first compound, second compound 10 µM
[7] = second compound 0.0316 µM, first compound 0.0316 µM
[8] = second compound 0.0316 µM, first compound 0.1 µM
[9] = second compound 0.0316 µM, first compound 0.316 µM
[10] = second compound 0.0316 µM, first compound 1 µM
[11] = second compound 0.0316 µM, first compound 3.16 µM
[12] = second compound 0.0316 µM, first compound 10 µM
[13] = second compound 0.1 µM, first compound 0.0316 µM
[14] = second compound 0.1 µM, first compound 0.1 µM
[15] = second compound 0.1 µM, first compound 0.316 µM
[16] = second compound 0.1 µM, first compound 1 µM
[17] = second compound 0.1 µM, first compound 3.16 µM
[18] = second compound 0.1 µM, first compound 10 µM
[19] = second compound 0.316 µM, first compound 0.0316 µM
[20] = second compound 0.316 µM, first compound 0.1 µM
[21] = second compound 0.316 µM, first compound 0.316 µM
[22] = second compound 0.316 µM, first compound 1 µM
[23] = second compound 0.316 µM, first compound 3.16 µM
[24] = second compound 0.316 µM, first compound 10 µM
[25] = second compound 1 µM, first compound 0.0316 µM
[26] = second compound 1 µM, first compound 0.1 µM
[27] = second compound 1 µM, first compound 0.316 µM
[28] = second compound 1 µM, first compound 1 µM
[29] = second compound 1 µM, first compound 3.16 µM
[30] = second compound 1 µM, first compound 10 µM
[31] = second compound 3.16 µM, first compound 0.0316 µM
[32] = second compound 3.16 µM, first compound 0.1 µM
[33] = second compound 3.16 µM, first compound 0.316 µM
[34] = second compound 3.16 µM, first compound 1 µM
[35] = second compound 3.16 µM, first compound 3.16 µM
[36] = second compound 3.16 µM, first compound 10 µM
[37] = second compound 10 µM, first compound 0.0316 µM
[38] = second compound 10 µM, first compound 0.1 µM
[39] = second compound 10 µM, first compound 0.316 µM
[40] = second compound 10 µM, first compound 1 µM
[41] = second compound 10 µM, first compound 3.16 µM
[42] = second compound 10 µM, first compound 10 µM
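Further: spheroids exposed to agents for seven days before readout.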

COC1C=CCC(C)C(C)S(=O)(=O)NC(=O)c2ccc3c(c2)N(CC2CCC21)CC1(CCCc2cc(Cl)ccc21)CO3 (stereo not given)
viability, T/C (compound 0.0316 µM): 102% and 113% | viability, T/C (compound 0.1 µM): 91.9% and 102% | viability, T/C (compound 0.316 µM): 95.6% and 101% | viability, T/C (compound 1 µM): 97.8% and 87.8% | viability, T/C (compound 3.16 µM): 87.5% and 111% | viability, T/C (compound 10 µM): 59.8% and 69.4% | IC50 (curve of compound): > 10000 nM

C=CC(=O)N1CCN(c2nc(=O)n(-c3c(C)ccnc3C(C)C)c3nc(-c4c(O)cccc4F)c(F)cc23)C(C)C1 (stereo not given) + CNC(=O)c1ccc(Nc2nc(OC3CCCC3)c3c(-c4ccc5nc(C)oc5c4)c[nH]c3n2)c(OC)c1
IC50 [1]: < 31.6 nM | IC50 [2]: < 31.6 nM | IC50 [3]: < 31.6 nM | IC50 [4]: < 31.6 nM | IC50 [5]: < 31.6 nM | IC50 [6]: < 31.6 nM | viability, T/C [7]: 36.8% | viability, T/C [8]: 35.4% | viability, T/C [9]: 29.5% | viability, T/C [10]: 27.4% | viability, T/C [11]: 23.5% | viability, T/C [12]: 24.6% | viability, T/C [13]: 34.6% | viability, T/C [14]: 33.2% | viability, T/C [15]: 27.6% | viability, T/C [16]: 28.7% | viability, T/C [17]: 26% | viability, T/C [18]: 26.1% | viability, T/C [19]: 34.9% | viability, T/C [20]: 30.8% | viability, T/C [21]: 27.1% | viability, T/C [22]: 25.6% | viability, T/C [23]: 24.8% | viability, T/C [24]: 26.2% | viability, T/C [25]: 35.7% | viability, T/C [26]: 25.7% | viability, T/C [27]: 28.8% | viability, T/C [28]: 25.3% | viability, T/C [29]: 31.9% | viability, T/C [30]: 27.7% | viability, T/C [31]: 32.3% | viability, T/C [32]: 29.9% | viability, T/C [33]: 28.3% | viability, T/C [34]: 24.4% | viability, T/C [35]: 27.6% | viability, T/C [36]: 30.9% | viability, T/C [37]: 32% | viability, T/C [38]: 28.9% | viability, T/C [39]: 27.8% | viability, T/C [40]: 27.4% | viability, T/C [41]: 29.9% | viability, T/C [42]: 26.4%

CC(CO)NC(=O)c1cc(-c2ccc(Cl)cc2)nn(-c2cnn(C)c2)c1=O (stereo not given) + CNC(=O)c1ccc(Nc2nc(OC3CCCC3)c3c(-c4ccc5nc(C)oc5c4)c[nH]c3n2)c(OC)c1
IC50 [1]: > 10000 nM | IC50 [2]: > 10000 nM | IC50 [3]: > 10000 nM | IC50 [4]: > 10000 nM | IC50 [5]: > 10000 nM | IC50 [6]: > 10000 nM | viability, T/C [7]: 91% | viability, T/C [8]: 112% | viability, T/C [9]: 112% | viability, T/C [10]: 114% | viability, T/C [11]: 77.2% | viability, T/C [12]: 81.7% | viability, T/C [13]: 113% | viability, T/C [14]: 97.3% | viability, T/C [15]: 109% | viability, T/C [16]: 98.9% | viability, T/C [17]: 74.9% | viability, T/C [18]: 78.1% | viability, T/C [19]: 73.2% | viability, T/C [20]: 73.8% | viability, T/C [21]: 72.6% | viability, T/C [22]: 73.5% | viability, T/C [23]: 72.2% | viability, T/C [24]: 66.8% | viability, T/C [25]: 74.8% | viability, T/C [26]: 64.2% | viability, T/C [27]: 66.2% | viability, T/C [28]: 55.1% | viability, T/C [29]: 57.5% | viability, T/C [30]: 61.8% | viability, T/C [31]: 56.3% | viability, T/C [32]: 60.8% | viability, T/C [33]: 57.2% | viability, T/C [34]: 61.8% | viability, T/C [35]: 51.5% | viability, T/C [36]: 50.2% | viability, T/C [37]: 55.6% | viability, T/C [38]: 63.4% | viability, T/C [39]: 67% | viability, T/C [40]: 60.4% | viability, T/C [41]: 60.9% | viability, T/C [42]: 56.4%

O=c1[nH]cc(F)c(=O)[nH]1 + CNC(=O)c1ccc(Nc2nc(OC3CCCC3)c3c(-c4ccc5nc(C)oc5c4)c[nH]c3n2)c(OC)c1
IC50 [1]: > 10000 nM | IC50 [2]: > 10000 nM | IC50 [3]: > 10000 nM | IC50 [4]: 2180 nM | IC50 [5]: > 10000 nM | IC50 [6]: 3110 nM | viability, T/C [7]: 102% | viability, T/C [8]: 103% | viability, T/C [9]: 89.9% | viability, T/C [10]: 91.2% | viability, T/C [11]: 82.2% | viability, T/C [12]: 72.5% | viability, T/C [13]: 100% | viability, T/C [14]: 98.1% | viability, T/C [15]: 86% | viability, T/C [16]: 78.1% | viability, T/C [17]: 87% | viability, T/C [18]: 78.3% | viability, T/C [19]: 79.3% | viability, T/C [20]: 79.7% | viability, T/C [21]: 68.9% | viability, T/C [22]: 61.7% | viability, T/C [23]: 58.3% | viability, T/C [24]: 57.2% | viability, T/C [25]: 68.2% | viability, T/C [26]: 67.1% | viability, T/C [27]: 51.6% | viability, T/C [28]: 54.2% | viability, T/C [29]: 51% | viability, T/C [30]: 44.5% | viability, T/C [31]: 58.3% | viability, T/C [32]: 78.6% | viability, T/C [33]: 73.1% | viability, T/C [34]: 56.8% | viability, T/C [35]: 52.5% | viability, T/C [36]: 49.4% | viability, T/C [37]: 60.6% | viability, T/C [38]: 63.7% | viability, T/C [39]: 70% | viability, T/C [40]: 57.7% | viability, T/C [41]: 46.4% | viability, T/C [42]: 53.5%

CCN1CCN(Cc2ccc(Nc3ncc(F)c(-c4cc(F)c5nc(C)n(C(C)C)c5c4)n3)nc2)CC1 + CNC(=O)c1ccc(Nc2nc(OC3CCCC3)c3c(-c4ccc5nc(C)oc5c4)c[nH]c3n2)c(OC)c1
IC50 [1]: > 1000 nM | IC50 [2]: > 1000 nM | IC50 [3]: > 1000 nM | IC50 [4]: > 1000 nM | IC50 [5]: > 1000 nM | IC50 [6]: > 1000 nM | viability, T/C (second compound 0.0316 µM, first compound 0.00316 µM): 96.2% | viability, T/C (second compound 0.0316 µM, first compound 0.01 µM): 111% | viability, T/C [7]: 79% | viability, T/C [8]: 73.5% | viability, T/C [9]: 80.9% | viability, T/C [10]: 96.2% | viability, T/C (second compound 0.1 µM, first compound 0.00316 µM): 81.5% | viability, T/C (second compound 0.1 µM, first compound 0.01 µM): 84.5% | viability, T/C [13]: 72.1% | viability, T/C [14]: 64.4% | viability, T/C [15]: 77.5% | viability, T/C [16]: 88.9% | viability, T/C (second compound 0.316 µM, first compound 0.00316 µM): 67.5% | viability, T/C (second compound 0.316 µM, first compound 0.01 µM): 58.9% | viability, T/C [19]: 60.5% | viability, T/C [20]: 59.3% | viability, T/C [21]: 65.3% | viability, T/C [22]: 71.9% | viability, T/C (second compound 1 µM, first compound 0.00316 µM): 72% | viability, T/C (second compound 1 µM, first compound 0.01 µM): 62.8% | viability, T/C [25]: 59.2% | viability, T/C [26]: 47.9% | viability, T/C [27]: 62.8% | viability, T/C [28]: 65.6% | viability, T/C (second compound 3.16 µM, first compound 0.00316 µM): 65.2% | viability, T/C (second compound 3.16 µM, first compound 0.01 µM): 51.5% | viability, T/C [31]: 56.2% | viability, T/C [32]: 56.2% | viability, T/C [33]: 66.5% | viability, T/C [34]: 67.9% | viability, T/C (second compound 10 µM, first compound 0.00316 µM): 54.6% | viability, T/C (second compound 10 µM, first compound 0.01 µM): 62.1% | viability, T/C [37]: 54.5% | viability, T/C [38]: 58.6% | viability, T/C [39]: 63.2% | viability, T/C [40]: 74.2%

Reference: PubChem BioAssay AID2060603 (Molecular Pharmacology Branch, DTP, NCI, 2025)
